Reference: patent US9273058B2 (BRISTOL-MYERS SQUIBB COMPANY, priority 2013, dated 2016)

biological target: CK1ε (Homo sapiens, UniProt P49674); assay: CK1ε kinase assay (Caliper LabChip electrophoretic separation of fluoresceinated peptide substrate and product); type: biochemical; details: 200 pM CK1ε, 50 μM ATP, 1.5 μM peptide, 22 hours at room temperature; read-out: CK1ε IC50 range
Description: (§1) CK1ε and CK1δ Kinase Assays
(§2) The kinase assay was performed in V-bottom 384-well plates. […] The reaction was incubated at room temperature for 22 hours and terminated by adding 45 μl of 35 mM EDTA to each sample. The reaction mixture was analyzed on the Caliper LABCHIP®3000 (Caliper, Hopkinton, Mass.) by electrophoretic separation of the unphosphorylated substrate and phosphorylated product. […] Compounds were dissolved at 10 mM in dimethylsulfoxide (DMSO) and evaluated at eleven concentrations. IC50 values were derived by non-linear regression analysis.

Chain of CK1ε (P49674 whole entry): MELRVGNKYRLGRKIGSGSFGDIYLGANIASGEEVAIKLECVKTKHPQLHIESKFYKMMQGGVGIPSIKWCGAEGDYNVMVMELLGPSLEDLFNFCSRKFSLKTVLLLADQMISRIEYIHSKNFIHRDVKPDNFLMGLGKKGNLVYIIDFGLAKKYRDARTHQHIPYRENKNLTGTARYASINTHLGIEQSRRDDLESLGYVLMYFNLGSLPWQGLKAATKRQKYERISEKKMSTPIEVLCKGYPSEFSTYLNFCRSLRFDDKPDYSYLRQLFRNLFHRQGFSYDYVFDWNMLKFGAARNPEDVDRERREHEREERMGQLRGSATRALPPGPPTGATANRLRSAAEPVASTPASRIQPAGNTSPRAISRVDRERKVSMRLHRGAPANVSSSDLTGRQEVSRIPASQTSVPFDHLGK

Q: How did the IC50 turn out when `CC(C)(NC(=O)N1CCn2nc(-c3cccc(F)c3)c(C(N)=O)c2C1)c1ccc(F)cc1` [Compound 17, 2-(3-Fluorophenyl)-N^5-(2-(4-fluorophenyl)propan-2-yl)-6,7-dihydropyrazolo[1,5-a]pyrazine-3,5(4H)-dicarboxamide] was run?
A: 10 to 100 nM

biological target: CK1δ (Homo sapiens, UniProt P48730); assay: CK1δ kinase assay (Caliper LabChip electrophoretic separation of fluoresceinated peptide substrate and product); type: biochemical; details: 200 pM CK1δ, 50 μM ATP, 1.5 μM peptide, 22 hours at room temperature; read-out: CK1δ IC50 range
Description: as §1, §2

Chain of CK1δ (P48730 whole entry): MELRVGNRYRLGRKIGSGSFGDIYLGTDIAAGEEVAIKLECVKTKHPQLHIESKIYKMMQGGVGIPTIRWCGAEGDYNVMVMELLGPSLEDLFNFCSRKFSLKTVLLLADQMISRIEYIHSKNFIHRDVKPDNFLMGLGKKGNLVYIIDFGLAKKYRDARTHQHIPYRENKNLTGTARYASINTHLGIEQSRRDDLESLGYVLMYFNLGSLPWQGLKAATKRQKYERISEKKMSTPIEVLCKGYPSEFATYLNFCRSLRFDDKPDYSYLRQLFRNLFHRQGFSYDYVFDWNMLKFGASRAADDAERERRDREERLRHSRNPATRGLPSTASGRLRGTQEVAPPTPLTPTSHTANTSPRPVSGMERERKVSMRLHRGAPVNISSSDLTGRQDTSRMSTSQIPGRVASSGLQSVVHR

Q: How did the IC50 turn out when `COC12CCC(NC(=O)N3CCn4nc(-c5ccc(F)c(Cl)c5)c(C(N)=O)c4C3)(CC1)C(=O)C2` [Compound A60, 2-(3-Chloro-4-fluorophenyl)-N^5-(4-methoxy-2-oxobicyclo[2.2.2]octan-1-yl)-6,7-dihydropyrazolo[1,5-a]pyrazine-3,5(4H)-dicarboxamide] was run?
A: 0.01 to 10 nM

Q: Which IC50 does the source give for `CC(CF)(CF)NC(=O)N1CCn2nc(-c3cccc(Cl)c3)c(C(N)=O)c2C1` [Compound 211, 2-(3-Chlorophenyl)-N^5-(1,3-difluoro-2-methylpropan-2-yl)-6,7-dihydropyrazolo[1,5-a]pyrazine-3,5(4H)-dicarboxamide] here?
A: 0.01 to 10 nM

Q: With `NC(=O)c1c(-c2cccc(Cl)c2)nn2c1CN(C(=O)NC(CF)(CF)CF)CC2` [Compound A41, 2-(3-Chlorophenyl)-N^5-(1,3-difluoro-2-(fluoromethyl)propan-2-yl)-6,7-dihydropyrazolo[1,5-a] pyrazine-3,5(4H)-dicarboxamide] as the compound, how does the IC50 read?
A: 0.01 to 10 nM

Q: With `NC(=O)c1c(-c2ccc(F)c(Cl)c2)nn2c1CN(C(=O)NC1CC(C(F)F)C1)CC2` (single isomer, unassigned) [Compound 253, 2-(3-Chloro-4-fluorophenyl)-N^5-(3-(difluoromethyl)cyclobutyl)-6,7-dihydropyrazolo[1,5-a]pyrazine-3,5(4H)-dicarboxamide] as the compound, how does the IC50 read?
A: 0.01 to 10 nM

Q: For `N#CC1(NC(=O)N2CCn3nc(-c4cccc(Cl)c4)c(C(N)=O)c3C2)CC1` [Compound A45, 2-(3-Chlorophenyl)-N^5-(1-cyanocyclopropyl)-6,7-dihydropyrazolo[1,5-a]pyrazine-3,5(4H)-dicarboxamide], which IC50 is on record?
A: 0.01 to 10 nM

Q: `NC(=O)c1c(-c2ccc(F)c(Cl)c2)nn2c1CN(C(=O)NC1CC(C(F)F)C1)CC2` (single isomer, unassigned) [Compound 252, 2-(3-Chloro-4-fluorophenyl)-N^5-(3-(difluoromethyl)cyclobutyl)-6,7-dihydropyrazolo[1,5-a]pyrazine-3,5(4H)-dicarboxamide] was tested. Which IC50 did it give?
A: 0.01 to 10 nM

Q: For `N#Cc1ccc(O[C@H]2C[C@H](NC(=O)N3CCn4nc(-c5ccc(Cl)c(Cl)c5)c(C(N)=O)c4C3)C2)cc1` [Compound 268, N^5-((1r,3r)-3-(4-Cyanophenoxy)cyclobutyl)-2-(3,4-dichlorophenyl)-6,7-dihydropyrazolo[1,5-a] pyrazine-3,5(4H)-dicarboxamide], which IC50 is on record?
A: 0.01 to 10 nM

Q: For `N#CC12C3C4C1C1C2C3C41NC(=O)N1CCn2nc(-c3ccc(F)c(Cl)c3)c(C(N)=O)c2C1` (stereo not shown) [Compound A70, N^5-(4-Cyanocuban-1-yl)-2-(3-chloro-4-fluorophenyl)-6,7-dihydropyrazolo[1,5-a]pyrazine-3,5(4H)-dicarboxamide], which IC50 is on record?
A: 0.01 to 10 nM

Q: For `N#CC1(NC(=O)N2CCn3nc(-c4cccc(Cl)c4)c(C(N)=O)c3C2)CCC1` [Compound A43, 2-(3-Chlorophenyl)-N^5-(1-cyanocyclobutyl)-6,7-dihydropyrazolo[1,5-a]pyrazine-3,5(4H)-dicarboxamide], which IC50 is on record?
A: 0.01 to 10 nM

Q: Which IC50 does the source give for `NC(=O)c1c(-c2cccc(Cl)c2)nn2c1CN(C(=O)NC1CC(C(F)F)C1)CC2` (stereo not shown) [Compound 257, 2-(3-Chlorophenyl)-N^5-(3-(difluoromethyl)cyclobutyl)-6,7-dihydropyrazolo[1,5-a]pyrazine-3,5(4H)-dicarboxamide] here?
A: 0.01 to 10 nM

Q: For `NC(=O)c1c(-c2ccc(F)c(Cl)c2)nn2c1CN(C(=O)NC13CCC(CC1)C3)CC2` [Compound A73, N^5-(Bicyclo[2.2.1]heptan-1-yl)-2-(3-chloro-4-fluorophenyl)-6,7-dihydropyrazolo[1,5-a]pyrazine-3,5(4H)-dicarboxamide], which IC50 is on record?
A: 0.01 to 10 nM

Q: With `CO[C@H]1C[C@@H](NC(=O)N2CCn3nc(-c4ccc(F)c(Cl)c4)c(C(N)=O)c3C2)C1` [Compound 191, 2-(3-Chloro-4-fluorophenyl)-N^5-((1s,3s)-3-methoxycyclobutyl)-6,7-dihydropyrazolo[1,5-a] pyrazine-3,5(4H)-dicarboxamide] as the compound, how does the IC50 read?
A: 0.01 to 10 nM

Q: With `NC(=O)c1c(-c2ccc(F)c(Cl)c2)nn2c1CN(C(=O)N[C@@H]1C[C@@H]3[C@H](C1)C3(F)F)CC2` [Compound 197, 2-(3-Chloro-4-fluorophenyl)-N^5-((1R,3s,5S)-6,6-difluorobicyclo[3.1.0]hexan-3-yl)-6,7-dihydropyrazolo[1,5-a] pyrazine-3,5(4H)-dicarboxamide] as the compound, how does the IC50 read?
A: 0.01 to 10 nM

Q: With `NC(=O)c1c(-c2cccc(Cl)c2)nn2c1CN(C(=O)NC13CCC(F)(CC1)CC3)CC2` [Compound A75, 2-(3-Chlorophenyl)-N^5-(4-fluorobicyclo[2.2.2]octan-1-yl)-6,7-dihydropyrazolo[1,5-a]pyrazine-3,5(4H)-dicarboxamide] as the compound, how does the IC50 read?
A: 0.01 to 10 nM

Q: How did the IC50 turn out when `CC(C)(C)NC(=O)N1Cc2c(C(N)=O)c(-c3cccc(Cl)c3)nn2C(CO)C1` (stereo not shown) [Compound A2, N^5-(tert-Butyl)-2-(3-chlorophenyl)-7-(hydroxymethyl)-6,7-dihydropyrazolo[1,5-a] pyrazine-3,5(4H)-dicarboxamide] was run?
A: 0.01 to 10 nM

Q: For `CC(F)(F)C(C)(C)NC(=O)N1CCn2nc(-c3cccc(Cl)c3)c(C(N)=O)c2C1` [Compound 174, 2-(3-Chlorophenyl)-N^5-(3,3-difluoro-2-methylbutan-2-yl)-6,7-dihydropyrazolo[1,5-a] pyrazine-3,5(4H)-dicarboxamide], which IC50 is on record?
A: 0.01 to 10 nM

Q: How did the IC50 turn out when `CC1(NC(=O)N2CCn3nc(-c4cccc(Cl)c4)c(C(N)=O)c3C2)CCC1` [Compound A44, 2-(3-Chlorophenyl)-N^5-(1-methylcyclobutyl)-6,7-dihydropyrazolo[1,5-a]pyrazine-3,5(4H)-dicarboxamide] was run?
A: 0.01 to 10 nM

Q: How did the IC50 turn out when `CC(C)(NC(=O)N1CCn2nc(-c3ccc(Cl)c(Cl)c3)c(C(N)=O)c2C1)C1CC(F)(F)C1` [Compound 228, 2-(3,4-Dichlorophenyl)-N^5-(2-(3,3-difluorocyclobutyl)propan-2-yl)-6,7-dihydropyrazolo[1,5-a] pyrazine-3,5(4H)-dicarboxamide] was run?
A: 0.01 to 10 nM

Q: How did the IC50 turn out when `NC(=O)c1c(-c2ccc(F)c(Cl)c2)nn2c1CN(C(=O)N[C@H]1C[C@@H]3[C@H](C1)C3(F)F)CC2` [Compound 198] was run?
A: 0.01 to 10 nM

Q: For `CC(CF)(CF)NC(=O)N1CCn2nc(-c3ccc(Cl)c(Cl)c3)c(C(N)=O)c2C1` [Compound 210, 2-(3,4-Dichlorophenyl)-N^5-(1,3-difluoro-2-methylpropan-2-yl)-6,7-dihydropyrazolo [1,5-a]pyrazine-3,5(4H)-dicarboxamide], which IC50 is on record?
A: 0.01 to 10 nM

Q: Which IC50 does the source give for `CCC1(NC(=O)N2CCn3nc(-c4ccc(Cl)c(Cl)c4)c(C(N)=O)c3C2)CC(F)(F)C1` [Compound 301, 2-(3,4-Dichlorophenyl)-N^5-(1-ethyl-3,3-difluorocyclobutyl)-6,7-dihydropyrazolo[1,5-a]pyrazine-3,5(4H)-dicarboxamide] here?
A: 0.01 to 10 nM

Q: `CC(C)(C)NC(=O)N1Cc2c(C(N)=O)c(-c3ccc(F)c(Cl)c3)nn2C(C(F)(F)F)C1` (single isomer, unassigned) [Compound A128, N^5-(tert-Butyl)-2-(3-chloro-4-fluorophenyl)-7-(trifluoromethyl)-6,7-dihydropyrazolo[1,5-a]pyrazine-3,5(4H)-dicarboxamide] was tested. Which IC50 did it give?
A: 0.01 to 10 nM

Q: How did the IC50 turn out when `NC(=O)c1c(-c2ccc(F)c(Cl)c2)nn2c1CN(C(=O)NC13C4C5C1C1C3C4C51F)CC2` (stereo not shown) [Compound A71, N^5-(4-Fluorocuban-1-yl)-2-(3-chloro-4-fluorophenyl)-6,7-dihydropyrazolo[1,5-a]pyrazine-3,5(4H)-dicarboxamide] was run?
A: 0.01 to 10 nM

Q: Which IC50 does the source give for `Cc1cc(C)cc(-c2nn3c(c2C(N)=O)CN(C(=O)NC(C)(C)C)CC3)c1` [Compound 128, N^5-(tert-Butyl)-2-(3,5-dimethylphenyl)-6,7-dihydropyrazolo[1,5-a] pyrazine-3,5(4H)-dicarboxamide] here?
A: 10 to 100 nM

Q: `COC12CCC(NC(=O)N3CCn4nc(-c5ccc(F)c(Cl)c5)c(C(N)=O)c4C3)(CC1)CC2` [Compound A59, 2-(3-Chloro-4-fluorophenyl)-N^5-(4-methoxybicyclo[2.2.2]octan-1-yl)-6,7-dihydropyrazolo[1,5-a]pyrazine-3,5(4H)-dicarboxamide] was tested. Which IC50 did it give?
A: 0.01 to 10 nM

Q: For `NC(=O)c1c(-c2ccc(F)c(Cl)c2)nn2c1CN(C(=O)NC13C4C5C6C4C1C6C53)CC2` (stereo not shown) [Compound A72, N^5-(Cuban-1-yl)-2-(3-chloro-4-fluorophenyl)-6,7-dihydropyrazolo[1,5-a]pyrazine-3,5(4H)-dicarboxamide], which IC50 is on record?
A: 0.01 to 10 nM

Q: `NC(=O)c1c(-c2ccc(Cl)c(Cl)c2)nn2c1CN(C(=O)N[C@@H]1CC[C@@H]1C(F)F)CC2` [Compound 240, 2-(3,4-Dichlorophenyl)-N^5-((1R,2S)-2-(difluoromethyl)cyclobutyl)-6,7-dihydropyrazolo[1,5-a] pyrazine-3,5(4H)-dicarboxamide] was tested. Which IC50 did it give?
A: 0.01 to 10 nM

Q: Which IC50 does the source give for `NC(=O)c1c(-c2cccc(Cl)c2)nn2c1CN(C(=O)NC1CC(C(F)F)C1)CC2` (stereo not shown) [Compound 256, 2-(3-Chlorophenyl)-N^5-(3-(difluoromethyl)cyclobutyl)-6,7-dihydropyrazolo[1,5-a]pyrazine-3,5(4H)-dicarboxamide] here?
A: 0.01 to 10 nM

Q: Which IC50 does the source give for “2-(3-Chloro-4-fluorophenyl)-N^5-(3,3-difluorocyclobutyl)-7-isopropyl-6,7-dihydropyrazolo[1,5-a]pyrazine-3,5(4H)-dicarboxamide [Compound A123]” here?
A: 10 to 100 nM

Q: For `CC(C)(O)[C@H](F)CNC(=O)N1CCn2nc(-c3cccc(Cl)c3)c(C(N)=O)c2C1` [Compound 337, (R)-2-(3-Chlorophenyl)-N^5-(2-fluoro-3-hydroxy-3-methylbutyl)-6,7-dihydropyrazolo[1,5-a]pyrazine-3,5(4H)-dicarboxamide], which IC50 is on record?
A: 0.01 to 10 nM
